{"source": "ChEMBL document CHEMBL1132116", "about": "“Abasic site recognition in DNA as a new strategy to potentiate the action of anticancer alkylating drugs?” (1999)", "key": {"Mus musculus [1]": {"species": "Mus musculus", "experiment": "Rate of survival of treated Mice to survival of controls * 100", "format": "functional"}, "Mus musculus [2]": {"test_system": "Mus musculus", "experiment": "Number of surviving Mice after 60 days of administration of the compound; Survivals= 0/6", "format": "functional"}, "Mus musculus [3]": {"test_system": "Mus musculus", "experiment": "Number of surviving Mice in the presence (N,N''-bis(2-chloroethyl)-N-nitrosourea) of BCNU after 60 days of administration of the compound; Survivals= 6/6", "format": "functional"}, "P388": {"test_system": "P388", "experiment": "Inhibitory activity against P388 murine leukemia at 2 mg/kg concentration", "format": "functional, Mus musculus"}}}
{"smiles": "COc1ccc2nc3cc(Cl)ccc3c(NCCCN(CCCN(CCn3cnc4c(N)ncnc43)C(=N)N)C(=N)N)c2c1", "values": [{"measurement": "T/C", "setting": "Mus musculus [1]", "value": 109}, {"measurement": "Survival", "setting": "Mus musculus [2]", "value": 0}, {"measurement": "Survival", "setting": "Mus musculus [3]", "value": 6}, {"measurement": "Survival", "setting": "P388", "value": 16.2, "unit": "days"}]}
